Data taken from US7521471B2, “4-cyanopyrazole-3-carboxamide derivatives, preparation and application thereof” (Sanofi-Aventis, priority 2003, dated 2009).

Experiments:
CB1 receptors = molecular target: T1, CB1 receptors (Mus musculus, UniProt P47746); test: in vivo test (binding ex vivo) in mice after intravenous and/or oral administration
T1 construct: from tissue
Method: The compounds according to the invention were tested in vivo (binding ex vivo) in mice after intravenous and/or oral administration, according to the experimental conditions described by Rinaldi-Carmona et al. (J. Pharmacol. Exp., 1998, 284, 644-650). […] By the oral route, compounds 2, 3, 4, 11 and 12 have an ED50 of between 1 and 20 mg/kg for the CB1 receptors.

[1] = molecular target: CB1 cannabinoid receptors (Homo sapiens, UniProt P21554); conditions: cited from earlier work
Chain of CB1 cannabinoid receptors (P21554 whole entry): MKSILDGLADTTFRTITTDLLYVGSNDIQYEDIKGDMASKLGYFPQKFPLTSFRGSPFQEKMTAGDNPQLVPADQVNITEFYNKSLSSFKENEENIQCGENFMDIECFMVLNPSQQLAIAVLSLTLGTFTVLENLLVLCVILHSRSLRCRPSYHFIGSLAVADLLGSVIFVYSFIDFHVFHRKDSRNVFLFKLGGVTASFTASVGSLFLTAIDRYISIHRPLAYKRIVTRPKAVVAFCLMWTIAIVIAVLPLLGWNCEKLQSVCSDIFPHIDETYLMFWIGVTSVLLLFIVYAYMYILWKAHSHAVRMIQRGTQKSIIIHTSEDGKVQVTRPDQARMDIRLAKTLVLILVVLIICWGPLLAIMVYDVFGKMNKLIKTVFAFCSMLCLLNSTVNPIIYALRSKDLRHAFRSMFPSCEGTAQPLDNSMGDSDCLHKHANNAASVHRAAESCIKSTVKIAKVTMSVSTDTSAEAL

T1 sequence (P47746 whole entry): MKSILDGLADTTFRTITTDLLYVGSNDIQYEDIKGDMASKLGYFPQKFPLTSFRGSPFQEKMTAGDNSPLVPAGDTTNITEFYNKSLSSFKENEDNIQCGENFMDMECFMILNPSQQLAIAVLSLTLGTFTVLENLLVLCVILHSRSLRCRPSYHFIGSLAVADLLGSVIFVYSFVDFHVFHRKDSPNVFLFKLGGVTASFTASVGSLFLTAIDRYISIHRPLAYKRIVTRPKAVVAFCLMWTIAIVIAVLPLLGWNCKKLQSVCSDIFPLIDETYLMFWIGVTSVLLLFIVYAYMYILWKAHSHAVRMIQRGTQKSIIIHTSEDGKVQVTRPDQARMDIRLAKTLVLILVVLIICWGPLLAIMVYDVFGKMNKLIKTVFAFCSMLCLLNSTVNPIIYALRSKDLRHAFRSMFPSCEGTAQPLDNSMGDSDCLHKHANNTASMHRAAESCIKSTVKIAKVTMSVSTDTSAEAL

Row | SMILES | ED50 (CB1 receptors) | properties for the CB1 cannabinoid receptors [1]
1 | CC(C)(C)NC(=O)c1nn(-c2ccc(Cl)cc2Cl)c(-c2ccc(Br)cc2)c1C#N [Compound 12, 5-(4-Bromophenyl)-4-cyano-1-(2,4-dichlorophenyl)-N-tert-butyl-1H-pyrazole-3-carboxamide] | 1 to 20 mg/kg | 
2 | COc1ccc(-c2c(C#N)c(C(=O)Nc3ccccc3)nn2-c2ccccc2Cl)cc1 [N-phenyl-1-(2-chlorophenyl)-4-cyano-5-(4-methoxyphenyl)-1H-pyrazole-3-carboxamide] |  | inverse agonist properties
